Data taken from patent US3974168A, “Tricycle substituted acetones” (Yoshitomi Pharmaceutical Industries, Ltd., priority 1973, dated 1976).

Tests used:
[1] = test system: stretch symptoms induced by o-phenyl-p-benzoquinone; test: Phenylquinone Method (analgesic action); format: in vivo, dd-strain male mice; details: mice, stretch symptoms over 30 minutes
Method: Analgesic Action (Phenylquinone Method)
According to the method of Hendershot et al. (J. Pharmacol. Exptl. Therap., 125, 237 (1957)), to one group of six dd-strain male mice each weighing about 20 g a test solution containing a test compound was orally administered and 1 hour later 0.2 ml/20 g of body weight of 0.02% o-phenyl-p-benzoquinone solution was intraperitoneally injected. The frequency of stretch symptoms thus induced was measured for 30 minutes, and compared with that of a control group, and the inhibition percentage (effect) was calculated. Results: Carrageenin Edema Method Compound Dose (mg/kg) p.o. % inhibition ______________________________________ A 5 50 25 68 B 10 36 25 61 C 25 32 50 63 ______________________________________

[2] = test system: Carrageenin Edema; test: Carrageenin Edema Method (anti-inflammatory action); format: in vivo, Donryu-strain male rats; details: carrageenin paw edema, rats, 2 hours after phlogogen
Method: i. Carrageenin Edema Method
According to the method of Winter et al. (Proc. Soc. Exptl. Biol. Med., 111, 544 (1962)), to one group of five Donryu-strain male rats each weighing about 130 g a test solution containing a test compound was administered orally. One hour later 0.05 ml of 1% carrageenin solution as a phlogogenic substance was subcutaneously injected to the paw of the hind leg. And 2 hours after the administration of phlogogen the bulk of the paw was measured in order to obtain the increment percentage over that before administration. The ratio of bulk increment between a control group and a test group was calculated as inhibition percentage.

[3] = test system: Ultraviolet Erythema; test: Ultraviolet Erythema Method (anti-inflammatory action); format: in vivo; details: guinea pigs, 2 hours after irradiation, half dose 1 hour before and after
Method: ii. Ultraviolet Erythema Method
Using guinea pigs weighing 250-450 g, a rubber plate with 3 holes of 7 mm in diameter was fitted to the abdomen, hair of which had been removed in advance, and light was given by a mercury lamp (300 W) at the distance of 15 cm for 150 seconds. Two hours later the degree of erythema formation was marked according to the method of Winder et al. (Arch. Intern. Pharmacodyn., 116, 261 (1958)) and the efficacy rate was calculated, based on the criterion that 1.5 or less of total marks be effective. Half amount of the test solution was orally given 1 hour before and after the irradiation.

SMILES: CC(=O)C(C)c1ccc2c(c1)Cc1ccc(C)nc1O2 (stereo not drawn) [B, 3-(2-methyl-5H-[1]benzopyrano[2,3-b]pyridin-7-yl)-2-butanone]
- % inhibition ([1]; 0.5 mg/kg p.o.): 24.0%
- % inhibition ([1]; 1 mg/kg p.o.): 63.4%
- % inhibition ([2]; 10 mg/kg p.o.): 36%
- % inhibition ([2]; 25 mg/kg p.o.): 61%
- Animals with score of 1.5 or less / Total animals ([3]; 100 mg/kg p.o.): 2/5
- Animals with score of 1.5 or less / Total animals ([3]; 250 mg/kg p.o.): 4/5

SMILES: CCC(=O)C(C)c1ccc2c(c1)Cc1cccnc1O2 (stereo not drawn) [C, 2-(5h-[1]benzopyrano[2,3-b]pyridin-7-yl)-3-pentanone]
- % inhibition ([1]; 25 mg/kg p.o.): 41.6%
- % inhibition ([1]; 50 mg/kg p.o.): 75.2%
- % inhibition ([2]; 25 mg/kg p.o.): 32%
- % inhibition ([2]; 50 mg/kg p.o.): 63%
- Animals with score of 1.5 or less / Total animals ([3]; 1 mg/kg p.o.): 2/5
- Animals with score of 1.5 or less / Total animals ([3]; 5 mg/kg p.o.): 3/5

SMILES: CC(=O)C(C)c1ccc2c(c1)Cc1cccnc1O2 (stereo not drawn) [A, 3-(5h-[1]benzopyrano[2,3-b]pyridin-7-yl)-2-butanone]
- % inhibition ([1]; 5 mg/kg p.o.): 48.7%
- % inhibition ([1]; 10 mg/kg p.o.): 73.5%
- % inhibition ([2]; 5 mg/kg p.o.): 50%
- % inhibition ([2]; 25 mg/kg p.o.): 68%
- Animals with score of 1.5 or less / Total animals ([3]; 1 mg/kg p.o.): 3/10
- Animals with score of 1.5 or less / Total animals ([3]; 2.5 mg/kg p.o.): 6/10
